The source of these data is patent US6630570B1, “Short-chain peptide-dye conjugates as contrast media for optical diagnosis” (priority 1999, dated 2003).

“Also recorded” adds a separate entry of the source. No end group written: not given here.

Series [1] has as its system RIN38-VIP1-cells. The series is described as follows: Cell imaging by fluorescence microscopy, RIN38-VIP1 cells. The series is classed as cell-based, rat. The settings on record: 10 μM. Here is the method:
(§1) The binding and imaging of the compounds according to the invention were studied in vitro in human tumor cells, and the receptors for vaso-active intestinal peptide and/or somatostatin and/or neurotensin were expressed. To this end, 5×10^5 tumor cells were incubated in 1.5 ml of medium, which contained the test substance. Different concentrations of the substances (10 nM-10 μM) were used, and the incubation period varied (1 minute-24 hours). After the incubation, the cells were set, and microscopic preparations were produced. The evaluation was carried out on a Zeiss Axiovert 135-fluorescence microscope, which was equipped with a Cy7-(Exciter HQ 710/70 nm, emitter 810/90 nm, beam splitter 750 nm LP), Cy5-(exciter 575-625 nm, emitter 660-710 nm BP, beam splitter 645 nm) and Cy3-filter set (exciter 546/12 nm, emitter 590 nm LP, beam splitter 580 nm). From all preparations, white light and fluorescence images were recorded with a CCD-camera (Visitron RTE/CCD-576) and digitally stored.

For series [2], the system named is HT29-tumor. The series is described as follows: In-vivo fluorescence imaging in tumor-carrying nude mice, HT29 tumor. The settings on record: 0.1 μmol/kg intravenously, one hour after administration. From the text: The imaging properties of the compounds according to the invention were studied in vivo after injection into tumor-carrying nude mice. […] The fluorescence of the substances was excited by irradiation of animals with near-infrared light of wavelength 640 nm (indodicarbocyanines) or 740 nm (indotricarbocyanines), which was produced with an Nd:YAG laser. The fluorescence radiation was detected at a wavelength of >700 nm or >800 nm by an intensified CCD-camera, and the fluorescence images were stored digitally.

The subject of series [3] is HT29 cells. Put plainly: Cell imaging by fluorescence microscopy, HT29 cells. The class given is cell-based, human. The settings on record: 10 μM, 30 minutes of incubation, Cy7-filter set. The protocol: as §1

As for “(ξ-Amino-indotricarbocyanine)-Lys^25-VIP (14-25)-conjugate (RKQMAVKKYLNK(indotricarbocyanine)) [conjugate 24]”, the “fluorescence image of the cells (pattern, correlation with white light image)” value in series [1] (Cy7-filter set) is listed as “homogeneous, intracellular near-nucleus fluorescence”. The “increase in fluorescence intensity in the tumor relative to the contralateral flank” value in series [2] (HT29 tumor in right rear flank) is reported as approximately 1.5 fold. In series [2] (HT29 tumor mouse), the “fluorescence outside the tumor (remainder of the body, kidneys)” value is reported as “increased fluorescence signal in the kidneys”.

For “Indocarbocyanine-VIP (1-28)-conjugate (HSDAVFTDNYTRLRKQMAVKKYLNSILN; ends and bridges not checked; also: indocarbocyanine conjugate, position not given here) [conjugate 14]”, the “fluorescence image of the cells (pattern)” value in series [1] (Cy3-filter set) is reported as “intracellular fluorescence areas with a vesicular pattern in the membrane area of the cell”. Turning to “Indotricarbocyanine-D-VIP (14-24)-conjugate (RKQMAVKKYLN; not fully specified; also: indotricarbocyanine dye conjugate, attachment site not given here) [conjugate 25]”, the “fluorescence image of the cells (pattern, correlation with white light image)” value in series [3] was “Fluorescence dispersed homogeneously over the cells, good correlation with the white light image”. Take “Indotricarbocyanine-VIP (1-28)-conjugate (HSDAVFTDNYTRLRKQMAVKKYLNSILN; ends and bridges not checked; also: indotricarbocyanine conjugate, position not given here) [conjugate 16]”: the “fluorescence image of the cells (pattern, correlation with white light image)” value in series [3] is “largely homogeneous fluorescence dispersed over the cells; also recorded: areas of increased signals were visible, which can be associated with vesicular compartments”.
